Values after ≈ are worked out from the molar mass of the structure shown. Values joined by “and” are separate entries in the source; they are usually repeats but may differ in a detail not shown here. Equal values may be shown once. Read-outs that look alike come from different tables or passages of the source.
Columns and labels:
HIV-1 protease = HIV-1 protease (Human immunodeficiency virus type 1 group M subtype B, UniProt P03369); test: biochemical
HIV-2 protease = molecular target: T1, HIV-2 protease (Human immunodeficiency virus type 2 subtype A, UniProt P04584); test: biochemical; conditions: 1M NaCl
T1 construct: the coding region of the 99-amino acid protease; made in house; host or cells: Saccharomyces cerevisiae strain AB110, plasmid pHIV2PR115
T1 sequence (P04584 514-612 limits assumed): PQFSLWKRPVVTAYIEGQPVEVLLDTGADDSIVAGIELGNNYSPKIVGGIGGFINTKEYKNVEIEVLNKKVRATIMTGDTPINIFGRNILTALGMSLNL
Procedure: The decapeptide was synthesized by conventional solid-state methods. Reactions were carried out and fractionated by HPLC. Conversion of the decapeptide to the two pentapeptides was quantitated by integration of the peak areas and comparison to product standard curves.
Enzymatic Inhibition. […] Each data point was done in triplicate and initial enzyme rates were fit to the Michaelis-Menten equation using a nonlinear regression program ("Enzfitter" from Biosoft).

HIV = test: HeLa/T4 infectivity assay with replication-defective virions from transfected COS-7 cells; assay type: cell-based; conditions: for colony reduction (summary in words): Table 5 concentrations
in vitro [1] = test: in vitro
Procedure: Cytotoxicity. The MTT assay was performed as follows:
The cells were seeded in 96-well plates and grown overnight to near 50% confluency. A serial dilution (1 to 500 μM) of each compound in culture media was prepared and 250 μL/well was added in duplicate. The cells were allowed to grow for various periods of time (6, 24, 48 hours) and any precipitation of compounds in the wells was noted. The assay was performed by removing 200 μL of the culture media and adding 25 μL of MTT solution (2 mg/mL in phosphate buffered saline (PBS)). This was incubated for 4 hours at 37° C. and live cells began to turn purple while the solution remained yellow. To quench the reaction and solubilize the reaction product, 160 μL of acidified isopropanol (4 mL 1N HCl for 96 mL alcohol) were added and the resulting mixture was mixed vigorously to dissolve purple crystals. Absorbance was determined at 550-570 nm on an ELISA plate reader within 0.5-2 hours. […] To obtain the LD50 values for each compound, the concentration at which the absorbance is haft of that for the untreated cells was determined.

in vitro [2] = conditions: african green monkey, cos-7 cells
Procedure: MTT cell viability assay. This is a quantitative colorimetric assay for mammalian cell survival and proliferation. Cells were seeded in 96 well plates and grown to near 50% confluency. A serial dilution (1 to 500 μM) of each compound was then prepared in culture media and added (250 μL/well) in duplicate. All culture media was adjusted to a final concentration of 1.0% DMSO (volume basis). The cells were allowed to grow for either 4 hours or 24 hours. The culture media were then removed, and the cells were washed with phosphate buffered saline (PBS) before 50 μL of MTT solution (1 mg/mL in PBS) was added. After incubating for 4 hours at 37° C., the reaction was quenched by adding 160 μL of acidified isopropanol and mixing to dissolve purple crystals. The absorbance was determined within 30 minutes at 570 nm on an ELISA plate reader.
The cytotoxic effect of the inhibitors was determined using the MTT stain viability assay.

p24 = p24 core antigen ELISA of virus from treated COS-7 cells; conditions: Human immunodeficiency virus 1, COS-7, 4 h; for IC50: read-out: Reduction of p24 IC50 (μM)
Procedure: Drug treatment. The compounds were added 48 hours post-transfection, at the peak of virus production, and the incubation was restricted to a 4-hour period. […] Culture media were adjusted to the desired concentration of these compounds just prior to the addition of the media to cells. To avoid precipitation, the compounds were aliquoted first to a tube in sufficient DMSO to yield a 1.0% final concentration, and subsequently the culture medium was added quickly and vortexed. The culture medium was collected after 4 hours of incubation of the cells with each of the compounds. This culture supernatant is the source of virus for measurement of infectivity as well as levels of p24 and other capsid proteins.
p24 Core antigen ELISA assay. An ELISA kit purchased from NEN/Dupont was used to determine the amount of p24 present in culture media or virus preparations. This capture assay uses a monoclonal antibody that preferentially binds p24 while it reacts with larger capsid protein precursors to a very limited extent. The assay was carded out using the manufacturer's indications. Samples were pre-treated with 1% Triton to inactivate the virus.
Virus isolation by ultracentrifugation. The culture medium was filtered through a 0.45 μm syringe filter and was then centrifuged to remove any precipitate. The medium was then spun through a cushion of 20% sucrose in PBS in an SW41 Beckman rotor for 1.5 hours at 35K and 4° C. The pelleted material was collected.
Following incubation of virus-producing cells with various concentrations of the test compounds, the virus particles were isolated by ultracentrifugation. These particles were disrupted using Triton X-100 and the amount of p24 capsid protein was quantitated by ELISA.

HIV-1 PR Q7K = HIV-1 PR Q7K (Human immunodeficiency virus type 1 group M subtype B, UniProt P03369, Q497K); assay type: biochemical; conditions: read-out: kinact (μM) HIV-1; inhibitor concentration resulting in half-maximal inactivation; pH 8.0, 25° C.
HIV-2 PR = molecular target: T2, HIV-2 PR (Human immunodeficiency virus type 2 subtype A, UniProt P04584); test: biochemical; assay type: biochemical; conditions: for KI (inactivation): read-out: kinact (μM) HIV-2
T2 construct: HIV-2 PR (at a final concentration of 30 μg/mL); made in house
T2 sequence (P04584 514-612 limits assumed): as above

[3] = HIV-1 Protease IC50 (μM) 1M NaCl
[4] = read-out: % p24 Relative to Untreated
[5] = HIV-1 Protease IC50 (μM) 1M NaCl, 1M NaCl
[6] = inhibitor concentration resulting in half-maximal inactivation, pH 8.0, 25° C.
[7] = pH 8, maximum inactivation rate, read-out: Vinact (min^-1 × 10^3) HIV-2 (converted)

## OC1(c2ccc(Cl)cc2)CCN(CCCC2(c3ccc(F)cc3)SCCS2)CC1 [UCSF8, (1,2-ethanethioacetal)-4-(4-(p-chlorophenyl)-4-hydroxypiperidinyl]-4'-fluorobutyrophenone]
HIV-1 protease
  HIV-1 Protease Therapeutic Index (LD50 /IC50): 4
  inhibition of HIV-1 protease compared with other compounds: 50% inhibition is achieved at a much lower inhibitor concentration relative to haloperidol
HIV-1 protease; [3]
  IC50: 15 µM
HIV-1 protease; IC50
  IC50: 73 µM and 32 µM and 15 µM
HIV-2 protease
  IC50: 100 µM
HIV; Human immunodeficiency virus 1, HeLaT4, 20 μM, 4-hour treatment, read-out: Hela/T4 Infection % Colony Reduction
  inhibition at 20 µM: 85%
HIV
  colony reduction (summary in words): significant colony reduction
In vitro [1]
  CC50 at 6 h: 60 µM
physchem
  solubility: > 250 µM
In vitro [2]
  CC50 at 4 h: 45 µM
  cytotoxicity at 4 h, 20 µM: 55%
p24; [4]
  activity at 20 µM: 62%

## OC1(CCCCc2ccccc2)CCC(O)(c2ccccc2)CC1 (centres unmarked) [UCSF29, 4-(4'-phenylbutyl)-1-phenyl-1,4-cyclohexanediol]
HIV-1 protease; 0.2M NaCl, read-out: IC50
  IC50: 1400 µM
HIV-1 protease; 0.5M NaCl, read-out: IC50
  IC50: 625 µM
HIV-1 protease; 1.0M NaCl, read-out: IC50
  IC50: 128 µM
HIV-1 protease; FIGS. 5-8, three salt concentrations
  inhibition of HIV-1 protease compared with other compounds: not unlike that for haloperidol
HIV-1 protease; [5]
  IC50: 128 µM
HIV-1 protease; LD50/IC50
  HIV-1 Protease Therapeutic Index (LD50 /IC50): 1.2
HIV; Human immunodeficiency virus 1, HeLaT4, 250 μM, 4-hour treatment, read-out: Hela/T4 Infection % Colony Reduction
  inhibition at 250 µM: 100%
HIV
  colony reduction (summary in words): significant colony reduction
In vitro [1]
  CC50 at 6 h: 160 µM
In vitro [2]
  CC50 at 4 h: 180 µM
  cytotoxicity at 4 h, 250 µM: 80%
Solubility
  solubility: > 250 µM
p24; [4]
  activity at 250 µM: 35%

## C=C(CCCC1(O)CCC(O)(c2ccc(Cl)cc2)CC1)c1ccccc1 (centres unmarked) [UCSF41, 4-(4'-phenyl-4-pentenyl)-1-(p-chlorophenyl)-1,4-cyclohexanediol]
HIV-1 protease; [5]
  IC50: 160 µM
HIV-1 protease; LD50/IC50
  HIV-1 Protease Therapeutic Index (LD50 /IC50): 0.6
In vitro [1]
  CC50 at 6 h: 90 µM
Solubility
  solubility: > 500 µM

## C=C(CCC[N+]1([O-])CCC(O)(c2ccc(Cl)cc2)CC1)c1ccc(F)cc1 (centres unmarked) [UCSF42]
HIV-1 protease
  HIV-1 Protease Therapeutic Index (LD50 /IC50): 5.3
  inhibition of HIV-1 protease compared with other compounds: better inhibitor than haloperidol but not as potent an inhibitor as UCSF8
HIV-1 protease; [3]
  IC50: 30 µM
HIV-2 protease
  IC50: 67 µM
HIV; Human immunodeficiency virus 1, HeLaT4, 75 μM, 4-hour treatment, read-out: Hela/T4 Infection % Colony Reduction
  inhibition at 75 µM: 92%
HIV
  colony reduction (summary in words): significant colony reduction
In vitro [1]
  CC50 at 6 h: 160 µM
physchem
  solubility: 500 µM (≈ 195 µg/mL)
In vitro [2]
  CC50 at 4 h: 300 µM
  cytotoxicity at 4 h, 75 µM: 0%
p24; [4]
  activity at 75 µM: 45%

## OC1(CCCCc2ccccc2)CCC(O)(c2ccc(Cl)cc2)CC1 (centres unmarked) [UCSF54]
HIV-1 protease; [5]
  IC50: 2500 µM
HIV-1 protease; LD50/IC50
  HIV-1 Protease Therapeutic Index (LD50 /IC50): < 0.08
In vitro [1]
  CC50 at 6 h: 190 µM
Solubility
  solubility: > 500 µM

## O=C(CCCC1(O)CCC(O)(c2ccc(Cl)cc2)CC1)c1ccc(F)cc1 (centres unmarked) [UCSF65, 4-(4'-p-fluorophenyl-4'-butanone)-1-p-chlorophenyl-1,4-cyclohexanediol]
In vitro [1]
  CC50 at 6 h: 250 µM
Solubility
  solubility: < 100 µM

## C#CCC(CC#C)(CCN1CCC(O)(c2ccc(Cl)cc2)CC1)C(=O)c1ccc(F)cc1 [UCSF69]
HIV-1 protease; [3]
  IC50: 50 µM
HIV-2 protease
  IC50: 60 µM
In vitro [1]
  CC50 at 6 h: 220 µM
physchem
  solubility: < 100 µM

## OC1(C#CC2(c3ccccc3)CO2)CCN(Cc2ccccc2)CC1 (centres unmarked) [UCSF70, N-benzyl-4-hydroxy-4-(3,4-epoxy-3-phenyl-1-butyny)piperidine]
HIV-1 protease; [5]
  IC50: 750 µM
HIV-1 PR Q7K
  KI (inactivation): 407 ± 61.6 µM
In vitro [1]
  CC50 at 6 h: 120 µM
In vitro [2]
  CC50 at 4 h: 70 µM
  CC50 at 24 h: 35 µM
Solubility
  solubility: > 500 µM
p24
  IC50: 25 µM

## OC(CC#CC1(O)CCN(Cc2ccccc2)CC1)c1ccccc1 (centres unmarked) [UCSF72]
HIV-1 protease; [5]
  IC50: 750 µM
In vitro [1]
  CC50 at 6 h: 260 µM
Solubility
  solubility: > 500 µM

## CC(CCc1ccccc1)N1CCC(O)(c2ccc(Cl)cc2)CC1 (centres unmarked) [UCSF73]
HIV-1 protease; [3]
  IC50: 100 µM
HIV-2 protease
  IC50: 188 µM
In vitro [1]
  CC50 at 6 h: 360 µM
physchem
  solubility: < 500 µM

## OC1(C2(c3ccc(Cl)cc3)SCCCS2)CCN(CCCC2(c3ccc(F)cc3)SCCS2)CC1 [UCSF75]
HIV-1 protease; [5]
  IC50: 50 µM
HIV-2 protease
  IC50: 13 µM
In vitro [1]
  CC50 at 6 h: 200 µM
Solubility
  solubility: < 50 µM

## OC(CC=CC1(O)CCN(Cc2ccccc2)CC1)c1ccccc1 (centres unmarked) [UCSF76]
HIV-1 protease; [5]
  IC50: 1650 µM
In vitro [1]
  CC50 at 6 h: 440 µM
Solubility
  solubility: > 500 µM

## OC(CCCC1(O)CCN(Cc2ccccc2)CC1)c1ccccc1 (centres unmarked) [UCSF77]
HIV-1 protease; [5]
  IC50: 2500 µM
HIV-2 protease
  IC50: 500 µM
In vitro [1]
  CC50 at 6 h: 500 µM
Solubility
  solubility: > 500 µM

## OC1(c2ccc(Cl)cc2)CCN(CCCC2(c3ccc(F)cc3)OCCS2)CC1 (centres unmarked) [UCSF78]
HIV-1 protease; [3]
  IC50: 39 µM
HIV-2 protease
  IC50: 167 µM
In vitro [1]
  CC50 at 6 h: 35 µM
physchem
  solubility: > 500 µM

## CC[C@@H]1CSC(CCCN2CCC(O)(c3ccc(Cl)cc3)CC2)(c2ccc(F)cc2)O1 (some centres unmarked) [UCSF79]
HIV-1 protease; [3]
  IC50: 30 µM
HIV-2 protease
  IC50: 68 µM
In vitro [1]
  CC50 at 6 h: 35 µM
physchem
  solubility: > 250 µM

## CC[C@H]1CSC(CCCN2CCC(O)(c3ccc(Cl)cc3)CC2)(c2ccc(F)cc2)O1 (some centres unmarked) [UCSF80]
HIV-1 protease; [3]
  IC50: 33 µM
HIV-2 protease
  IC50: 58 µM
In vitro [1]
  CC50 at 6 h: 40 µM
physchem
  solubility: > 250 µM

## O=C(c1ccc(N2CCC(O)(c3ccc(Cl)cc3)CC2)cc1)C1CC1 [UCSF81]
HIV-1 protease; [5]
  IC50: 200 µM
HIV-1 protease; LD50/IC50
  HIV-1 Protease Therapeutic Index (LD50 /IC50): > 1.25
HIV-2 protease
  IC50: 1000 µM
In vitro [1]
  CC50 at 6 h: > 250 µM
Solubility
  solubility: > 250 µM

## C=CCCCC1(C(=O)c2ccc(N3CCC(O)(c4ccc(Cl)cc4)CC3)cc2)CC1 [UCSF82]
HIV-1 protease; [5]
  IC50: 100 µM
HIV-2 protease
  IC50: 800 µM
In vitro [1]
  CC50 at 6 h: > 250 µM
Solubility
  solubility: < 100 µM

## O=C(c1ccc(N2CCC(O)(c3ccc(Cl)cc3)CC2)cc1)C1(CC#CCO)CC1 [UCSF83]
HIV-1 protease; [5]
  IC50: 15 µM
HIV-2 protease
  IC50: 78 µM
In vitro [1]
  CC50 at 6 h: > 250 µM
Solubility
  solubility: > 250 µM

## O=C(C#CCN1CCC(O)(c2ccc(Cl)cc2)CC1)c1ccccc1 [UCSF86, 4-(4'-(4"-chlorophenyl)-4'-hydroxypiperidinyl)-1-phenylbut-2-yn-1-one]
HIV-1 protease; [3]
  IC50: 20 µM
HIV-1 PR Q7K
  KI (inactivation): 62.4 ± 3.1 µM
HIV-2 PR; [6]
  KI (inactivation): 131 ± 4.4 µM
HIV-2 PR; [7]
  kinact: 0.0076 min⁻¹
In vitro [1]
  CC50 at 6 h: 15 to 20 µM
physchem
  solubility: > 60 µM
In vitro [2]
  CC50 at 4 h: 15 µM
  CC50 at 24 h: < 10 µM

## O=C(/C=C/C[N+]1([O-])CCC(O)(c2ccc(Cl)cc2)CC1)c1ccc(F)cc1 (centres unmarked) [UCSF115]
HIV-1 protease; [3]
  IC50: 30 µM
HIV-1 PR Q7K
  KI (inactivation): 144 ± 14.8 µM
HIV-2 PR; [6]
  KI (inactivation): 116 ± 4.7 µM
HIV-2 PR; [7]
  kinact: 0.0052 min⁻¹
In vitro [1]
  CC50 at 6 h: 250 µM
physchem
  solubility: 250 µM (≈ 97.5 µg/mL)
In vitro [2]
  CC50 at 4 h: 250 µM
  CC50 at 24 h: 200 µM
p24
  IC50: 75 µM

## O=C(C=C(CN1CCC(O)(c2ccc(Cl)cc2)CC1)SCCO)c1ccccc1 [UCSF178, 4-(4'-(4"-chlorophenyl)-4'-hydroxypiperidinyl)-3-(2'-hydroxyethylthio)-1-phenyl-2-buten-1-one]
HIV-1 protease; [3]
  IC50: 140 µM
HIV-1 PR Q7K
  KI (inactivation): 232 ± 10.8 µM
HIV-2 PR; [6]
  KI (inactivation): 120 ± 9.9 µM
HIV-2 PR; [7]
  kinact: 0.0046 min⁻¹
In vitro [1]
  CC50 at 6 h: > 250 µM
physchem
  solubility: 150 µM (≈ 64.8 µg/mL)
In vitro [2]
  CC50 at 4 h: > 250 µM
  CC50 at 24 h: 75 µM

## O=C(/C=C/CN1CCC(O)(c2ccc(Cl)cc2)CC1)c1ccc(F)cc1 [UCSF191]
HIV-1 protease; [3]
  IC50: 80 µM
HIV-1 PR Q7K
  KI (inactivation): 57.2 ± 7.1 µM
HIV-2 PR; pH 8, read-out: Vinact (min^-1 × 10^3) HIV-2
  kinact: 0.0121 min⁻¹
HIV-2 PR; hiv-2 pr, pH 8
  KI (inactivation): 156 ± 2.3 µM
In vitro [1]
  CC50 at 6 h: 22 µM
physchem
  solubility: > 150 µM

## O=C(C#CCN1CCC(O)(c2ccc(Cl)cc2)CC1)c1ccc(-c2ccccc2)cc1 [UCSF231, 4-(4'-(4"-chlorophenyl)-4'-hydroxypiperidinyl)-1-p-biphenylbut-2-yn-1-one]
HIV-1 protease
  HIV-1 Protease Therapeutic Index (LD50 /IC50): < 0.1
HIV-1 protease; [3]
  IC50: 100 µM
HIV-1 PR Q7K
  KI (inactivation): 385 ± 58 µM
In vitro [1]
  CC50 at 6 h: 10 µM
In vitro [2]
  CC50 at 4 h: < 5 µM
  CC50 at 24 h: < 5 µM
